Test results: patent publication US9517223B2, “Methods to treat neurodegenerative diseases” (Children's Medical Center Corporation, priority 2012, dated 2016)

Legend:
[1] = mice, 10 mg/kg IP injection for several weeks; cited from earlier work
[2] = tested on: ALS patient-derived motor neurons (39b); assay: Extracellular MEA recording of spontaneous firing, SOD1 A4V ALS motor neurons; details: retigabine 10 μM; two additional MEAs from separate differentiations

CCOC(=O)Nc1ccc(NCc2ccc(F)cc2)cc1N [Retigabine]
side effects [1]: without apparent side effects | percentage of active neurons blocked (spontaneous firing) [2]: 100%
